US20110064694A1, “ANTI-HEPATITIS C ACTIVITY OF MESO-TETRAKIS-PORPHYRIN ANALOGUES” (YALE UNIVERSITY, priority 2009, published 2011)
Where two headings read alike, the source gives them in different places.

Tests used:
[1] = system: mitochondrial DNA content of CEM cells; assay: Mitochondrial DNA toxicity, slot blot of CEM cell lysates; format: cell-based; details: read-out: Mitochondrial DNA Toxicity IC50 CEM
Method: Quantitation of mitochondrial DNA content was performed as previously published (18). Briefly, CEM cell lysates were spotted onto Hybond paper using the Miliford II slot blot apparatus (Schleicher & Schuell). MTDNA was detected with mtDNA-specific probe and then reprobed with Alu probe for internal control. The autoradiographic bands were quantified on scanning densitometer (Molecular Dynamics).

[2] = Cytotoxicity in Huh-7 cells (methylene blue or CellTiter-Glo); format: cell-based; details: human; Huh-7 cells, 3 days
Method: (§1) Determination of cytotoxicity and mitochondrial DNA toxicity. Exponentially growing Huh-7 cells were seeded at a density of 1×10^4 cells per well in a 24-well plate and incubated with TPP analogues for 3 days. Cells were fixed and stained with 0.5% methylene blue in 50% ethanol followed by extensive washing. After the plates were air dried, cells were solubilized in 1% sarkosyl and cell growth was determined from the extent of absorption by spectrophotometric measurements at 595 nm (Biotek Instruments). For compounds whose dark color interfered with 595-nm reading, cytotoxicity was measured by the CellTiter-Glo luminesecent cell viability assay following manufacturer's description (Promega). Cytotoxicity in MT-2 cells was determined from colorimetric quantitation of uninfected MT-2 cells after 5 days of coincubation.

[3] = Cytotoxicity in uninfected MT-2 cells; format: cell-based; details: human; uninfected MT-2 cells, 5 days
Method: as §1

[4] = system: HBV; assay: Anti-HBV activity in 2.2.15 cells by Southern DNA hybridization; format: cell-based; details: read-out: Antiviral Activity EC50 HBV
Method: (§2) Determination of antiviral activities. Ff-luciferase reporter activity was used to monitor the replication of HCV replicons in Huhluc/neo-ET cells free from G418. Replicon cells were seeded at the density of 5×10^3 cells per well in 96-well plates. The following day, replicon cells were incubated in duplicates with DMSO or serially diluted tetraphenylporphyrin (TPP) analogues at 37″C. 72 hrs after co-incubation, cells were lysed with ice-cold passive lysis reagent after PBS wash, and the luciferase activity was measured with the luciferase assay kit (Promega) and Tecan FARCyte luminometer (GE Healthcare) following the manufacturers' descriptions. The relative light units (RLU) were adjusted as percentage readings of the compound-free controls and the 50% effective concentration (EC50) was determined from dose-effect curve by nonlinear regression analysis using Origin 6.1 (OriginLab Software). TPP analogues were also screened in vitro against HIV-I IIIB and HBV as previously described (26,41). Briefly 1×10^3 MT-2 cells per well were exposed in triplets to 0.1TC1D50/cell (50% of the tissue culture infectious dose) of HIV-1 IIIB and cultured in the presence of compounds. The EC50 values were estimated by MTT-based colorimetric quantitation of viral CPE after 5 days. Anti-HBV activities were evaluated in 2.2.15 cells by means of Southern DNA hybridization.

[5] = system: HCV genotype 1b (Con 1 isolate) subgenomic replicon; assay: microbe, parasite or virus in culture; format: cell-based, Hepatitis C virus; details: for improvement in anti-HCV EC50 over compound 2: relative to lead compound 2
Method: (§3) Cells. HCV genotype 1b (Con 1 isolate) subgenomic replicon cell line with luciferase reporter (Huh-luc/neo-ET) was kindly provided by Ralf Bartenschlager from the University of Heidelberg (37). Huh-luc/neo-ET cells were cultured in Dulbecco's modified Eagle medium (DMEM , supplemented with 10% fetal bovine serum (FBS), 1 mM nonessential amino acids, and 250 μg/ml of G418 (Invitrogen). Genotype 2a (JFH-I isolate) subgenomic replicon cells YSGR-JFH were cultured in DMEM containing 10 To fetal calf serum, 1 mM nonessential amino acids and 400 μg/ml G418 (31). An additional genotype 1b (Conl) replicon cell line (4291BBix) was cultured in similar media but with 3 μg/ml blasticidin (22).
as §2

[6] = molecular target: cytochrome c (Equus caballus, UniProt P00004); details: read-out: Kd, binding to cyt c; cited from earlier work
[7] = system: HCV genotype 1b (Con1) replicon; assay: Effect of serum concentration on anti-HCV activity, luciferase assay in Huh-luc/neo-ET cells; format: cell-based, Hepatitis C virus; details: for Fold Change in EC50 5% FBS: EC50 at 5% FBS as one fold; for EC50: 72 hrs; for Fold Change in EC50 10% FBS / Fold Change in EC50 20% FBS / Fold Change in EC50 40% FBS: relative to EC50 at 5% FBS
Method: Cells were harvested after 72 hrs for luciferase activity assays.
Huh-luc/neo-ET cells were incubated with compound 1, 4 or 6 for 72 hrs and the anti-HCV activity was evaluated by measuring the reduction of reporter luciferase activities.

[8] = system: HIV-1 IIIB; assay: Anti-HIV activity in MT-2 cells, MTT quantitation of viral CPE; format: cell-based; details: read-out: Antiviral Activity EC50 HIV-1 IIIB
Method: as §2

[9] = system: HCV genotype 2a (JFH-1) replicon; assay: HCV RNA quantification by qRT-PCR in YSGR-JFH cells; format: cell-based, Hepatitis C virus; details: Hepatitis C virus, 72 h, read-out: antiviral EC50 against YSGR-JFH replicon cells
Method: as §3
Activity of compound 6 against genotype 2a (JFH-I) replicons. In parallel to Huh-luc/neo-ET cells, 1×10^5 YSGR-JFH cells per well were incubated with DMSO control, compound 6, or recombinant human IFNα-2a (Pestka Biomedical Laboratories) in 6-well plates. Cells were harvested after 72 hrs of co-incubation and HCV RNAs were quantitated by qRT-PCR and normalized as described above.

[10] = Cytotoxicity in CEM cells; details: human
[11] = system: Huh-7 cells; assay: Cytotoxicity in Huh-7 cells (methylene blue or CellTiter-Glo); format: cell-based
Method: as §1

[12] = system: MT-2 cells; assay: Cytotoxicity in uninfected MT-2 cells; format: cell-based
Method: as §1

[13] = system: CEM cells; assay: Cytotoxicity in CEM cells; details: read-out: Cytotoxicity CC50 CEM
[14] = system: CEM cells
[15] = Huh-luc/neo-ET, 72 hrs, luciferase, read-out: Antiviral Activity EC50 HCV

Chain of cytochrome c (P00004 2-105 limits assumed): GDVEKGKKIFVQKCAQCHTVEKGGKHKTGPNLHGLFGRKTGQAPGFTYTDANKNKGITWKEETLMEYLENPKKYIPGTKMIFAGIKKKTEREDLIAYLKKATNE

| SMILES | IC50 ([1]; CEM cells) [µM] | EC50 [4] [µM] | EC50 [5, 15] [nM] | EC50 ([8]; MT-2 cells, 5 days) [µM] | CC50 [11] [µM] | CC50 [12] [µM] | CC50 [14] [µM] | also measured |
| --- | --- | --- | --- | --- | --- | --- | --- | --- |
| O=C(O)c1ccc(-c2c3nc(c(-c4ccc(C(=O)O)cc4)c4ccc([nH]4)c(-c4ccc(C(=O)O)cc4)c4nc(c(-c5ccc(C(=O)O)cc5)c5ccc2[nH]5)C=C4)C=C3)cc1 [Compound 1, Meso-Tetra(4-carboxyphenyl)porphine] | – | – | – | – | – | – | – | IC50 ([1]; Homo sapiens, CCRF-CEM): > 50 µM; CC50 at 3 days [2]: > 50 µM; CC50 at 5 days [3]: > 25 µM; EC50 ([4]; Hepatitis B virus): > 10 µM; EC50 ([5]; Hepatitis C virus, Huh-luc/neo-ET, 72 hrs, luciferase, read-out: Antiviral Activity EC50 HCV): 243 ± 35.9 nM; improvement in anti-HCV EC50 over compound 2 [5]: Over 7 fold; Kd [6]: 0.95 ± 0.25 µM; Fold Change in EC50 5% FBS [7]: 1.00; EC50 ([7]; Hepatitis C virus, Huh-luc/neo-ET, read-out: EC50 10% FBS, 10% FBS): 243 ± 36 nM; EC50 ([7]; Hepatitis C virus, Huh-luc/neo-ET, read-out: EC50 20% FBS, 20% FBS): 513 ± 69 nM; EC50 ([7]; Hepatitis C virus, Huh-luc/neo-ET, 5% FBS, read-out: EC50 5% FBS): 124 ± 8 nM; EC50 ([7]; Hepatitis C virus, Huh-luc/neo-ET, 40% FBS, read-out: EC50 40% FBS): 948 ± 89 nM; EC50 ([7]; Hepatitis C virus, Huh-luc/neo-ET, extrapolation of the plot of EC50 vs serum amount, read-out: EC50 0% FBS (Theoretical)): 48.2 nM; Fold Change in EC50 10% FBS [7]: 1.95 ± 0.16; Fold Change in EC50 20% FBS [7]: 4.16 ± 0.82; Fold Change in EC50 40% FBS [7]: 7.62 ± 0.46; EC50 ([8]; Human immunodeficiency virus 1, IIIB, MT2, 120 h): > 25 µM; EC50 [9]: 1900 nM; CC50 [10]: 34 µM |
| O=C(O)CNC(=O)c1ccc(-c2c3nc(c(-c4ccc(C(=O)NCC(=O)O)cc4)c4ccc([nH]4)c(-c4ccc(C(=O)NCC(=O)O)cc4)c4nc(c(-c5ccc(C(=O)NCC(=O)O)cc5)c5ccc2[nH]5)C=C4)C=C3)cc1 [Compound 2] | 15 ± 3.7 | > 10 | 1800 ± 700 | > 25 | – | – | – | CC50 ([11]; Huh-7 cells, 3 days, read-out: Cytotoxicity CC50 Huh-7): > 50 µM; CC50 ([12]; uninfected MT-2 cells, 5 days, read-out: Cytotoxicity CC50 MT-2): 3.2 ± 1.13 µM; CC50 [13]: 27 ± 15.1 µM |
| O=C(O)c1cc(C(=O)O)cc(-c2c3nc(c(-c4cc(C(=O)O)cc(C(=O)O)c4)c4ccc([nH]4)c(-c4cc(C(=O)O)cc(C(=O)O)c4)c4nc(c(-c5cc(C(=O)O)cc(C(=O)O)c5)c5ccc2[nH]5)C=C4)C=C3)c1 [Compound 3] | 25 | 7 | 13600 ± 1100 | > 100 | > 50 | 22 | > 50 | – |
| O=C(O)c1ccc(-c2ccc(-c3c4nc(c(-c5ccc(-c6ccc(C(=O)O)cc6)cc5)c5ccc([nH]5)c(-c5ccc(-c6ccc(C(=O)O)cc6)cc5)c5nc(c(-c6ccc(-c7ccc(C(=O)O)cc7)cc6)c6ccc3[nH]6)C=C5)C=C4)cc2)cc1 [Compound 4, Tetracarboxybiphenylporphyrin] | 6 | > 10 | 877 ± 28.9 | > 25 | 32.2 ± 4.14 | > 25 | 10 | Kd [6]: 17 ± 0.84 µM; EC50 ([7]; 5% FBS, read-out: EC50 5% FBS): 633 ± 176 nM; EC50 ([7]; 40% FBS, read-out: EC50 40% FBS): 1480 ± 15 nM; Fold Change in EC50 5% FBS [7]: 1.00; EC50 ([7]; extrapolation of the plot of EC50 vs serum amount, read-out: EC50 0% FBS (Theoretical)): 380 nM; EC50 ([7]; read-out: EC50 10% FBS, 10% FBS): 877 ± 29 nM; EC50 ([7]; read-out: EC50 20% FBS, 20% FBS): 1210 ± 56 nM; Fold Change in EC50 10% FBS [7]: 1.46 ± 0.42; Fold Change in EC50 20% FBS [7]: 2.01 ± 0.52; Fold Change in EC50 40% FBS [7]: 2.48 ± 0.74 |
| O=C(O)CNC(=O)c1ccc(-c2ccc(-c3c4nc(c(-c5ccc(-c6ccc(C(=O)NCC(=O)O)cc6)cc5)c5ccc([nH]5)c(-c5ccc(-c6ccc(C(=O)NCC(=O)O)cc6)cc5)c5nc(c(-c6ccc(-c7ccc(C(=O)NCC(=O)O)cc7)cc6)c6ccc3[nH]6)C=C5)C=C4)cc2)cc1 [Compound 5] | > 50 | > 20 | 148 ± 6 | 1.5 ± 0.436 | > 50 | 13 ± 4.36 | > 50 | improvement in anti-HCV EC50 over compound 2 [5]: 12 fold |
| O=C(O)CNC(=O)c1cc(C(=O)NCC(=O)O)cc(-c2ccc(-c3c4nc(c(-c5ccc(-c6cc(C(=O)NCC(=O)O)cc(C(=O)NCC(=O)O)c6)cc5)c5ccc([nH]5)c(-c5ccc(-c6cc(C(=O)NCC(=O)O)cc(C(=O)NCC(=O)O)c6)cc5)c5nc(c(-c6ccc(-c7cc(C(=O)NCC(=O)O)cc(C(=O)NCC(=O)O)c7)cc6)c6ccc3[nH]6)C=C5)C=C4)cc2)c1 [Compound 7] | 12.5 | > 10 | > 12500 | 1.05 ± 0.071 | 12.5 | 15 ± 4.24 | > 50 | – |
| O=C(O)c1cccc(-c2ccc(-c3c4nc(c(-c5ccc(-c6cccc(C(=O)O)c6)cc5)c5ccc([nH]5)c(-c5ccc(-c6cccc(C(=O)O)c6)cc5)c5nc(c(-c6ccc(-c7cccc(C(=O)O)c7)cc6)c6ccc3[nH]6)C=C5)C=C4)cc2)c1 [Compound 9] | 22 | 8 | 764 ± 60 | > 25 | 13 ± 0.7 | > 25 | 50 | – |
| C[N+](C)(C)c1ccc(-c2c3nc(c(-c4ccc([N+](C)(C)C)cc4)c4ccc([nH]4)c(-c4ccc([N+](C)(C)C)cc4)c4nc(c(-c5ccc([N+](C)(C)C)cc5)c5ccc2[nH]5)C=C4)C=C3)cc1 [TTMAPP, 5,10,I5,20-Tetrakis (4(trimethylammonio)-phenyl)-21H,23H-porphine, reference compound] | – | – | – | – | – | – | – | EC50 ([5]; HCV replicons in vitro, read-out: anti-HCV EC50): 3580 nM |
